Laboratory results published in patent US11591476B2, “In-vivo probe for real time longitudinal monitoring of inducible nitric-oxide synthase in living cells and animals” (priority 2016, dated 2023).

Experiment: Fluorescence excitation and emission maxima of the probes
Type: physicochemical
Excerpt: The probe of the present disclosure can selectively bind iNOS enzyme and produce a perceptible change in fluorescence upon binding.

`CN1c2cc3c(cc2C(CS(=O)(=O)[O-])=CC1(C)C)C(c1c(Cl)c(SCC(=O)NCCCCCC(=O)N2CCN(c4ccnc(-n5ccnc5)n4)C(CC(=O)NCc4ccc5c(c4)OCO5)C2)c(Cl)c(Cl)c1C(=O)O)=c1cc2c(cc1O3)=[N+](C)C(C)(C)C=C2CS(=O)(=O)O` (centres unmarked) [PIA-610, Pyrimidine Imidazole Alexa-Fluor-610] showed an emission wavelength of 630 nm and a maximum excitation wavelength of 610 nm.
